{
  "source": "patent US7799524B2",
  "about": "“Substrates for O6-alkylguanina-DNA alkyltransferase” (Ecole Polytechnique Ferdeale de Lausanne, priority 2002, dated 2010)",
  "key": {"^PGEAhAGT-GST [1]": {"molecular_target": "T1, ^PGEAhAGT-GST (Homo sapiens, UniProt P16455, G160A/N157G/S159E)", "T1 sequence (P16455 1-207 N157G/S159E/G160A)": "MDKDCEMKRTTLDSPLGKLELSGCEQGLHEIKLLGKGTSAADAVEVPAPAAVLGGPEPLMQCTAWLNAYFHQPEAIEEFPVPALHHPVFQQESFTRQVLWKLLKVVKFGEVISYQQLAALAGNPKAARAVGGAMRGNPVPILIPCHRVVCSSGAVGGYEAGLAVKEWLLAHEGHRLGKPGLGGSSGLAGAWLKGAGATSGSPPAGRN", "assay": "Reactivity with hAGT fusion protein: pre-incubation with compound, then biotinylated O^6-benzylguanine-oligonucleotide, Western Blot (anti-biotin)", "type": "biochemical", "settings": "18 pmol protein, 0.2 μL of 5 mM compound in 15 μL 50 mM HEPES pH 7.5, 1 h, then 10 pmol biotinylated oligonucleotide 15 min", "experimental": "Lane marked “C” (control): The reaction product of ^[…] and the biotinylated O^6-benzylguanine oligonucleotide. […] Damoiseaux et al., ChemBiochem 4: 285-287, 2001) is added, and the reaction is allowed to continue for further 15 min. As a control 18 pmol ^[…] are incubated with 10 pmol of the same biotinylated oligonucleotide in a total volume of 15 μL of 50 mM HEPES pH 7.5 for 15 min without any substrate. Detection of the biotinylated reaction product between ^[…] and the biotinylated oligonucleotide is performed by Western Blotting using an anti-biotin conjugate coupled to HRP (Pierce)."}, "^PGEAhAGT-GST [2]": {"molecular_target": "T1, ^PGEAhAGT-GST", "assay": "Labelling of hAGT fusion protein, Western Blot with anti-fluorescein antibody", "type": "biochemical", "settings": "18 pmol ^PGEAhAGT-GST, 0.5 nmol compound, 15 μL 50 mM HEPES pH 7.5", "procedure": "Lanes 1 and 2 (two different concentrations) show the reaction product of compound 60 bearing a fluorescein label and a biotin label (a compound of formula 1 wherein L is a plurality of labels) with ^PGEAhAGT-GST.\n18 pmol ^PGEAhAGT-GST are incubated with 0.5 nmol 60 in a total volume of 15 μL of 50 mM HEPES pH 7.5. The reaction product is detected by Western Blotting using a goat anti-fluorescein antibody (Rockland) and a HRP conjugated anti-goat antibody (Sigma)."}, "[3]": {"system": "yeast L40 expressing LexA and B42 fusion proteins of ^3HYhAGT and DHFR", "assay": "Growth assay of yeast L40 strains on plates lacking histidine (HIS3 reporter, three-hybrid system)", "type": "cell-based", "settings": "for Growth rate: plates lacking histidine", "procedure": "Pairs of plasmids encoding LexA-^3HYhAGT and B42-DHFR fusion proteins are transformed into the yeast strain L40 in which the reconstitution of functional LexA-B42 transcription factor leads to transcription of the reporter genes HIS3 and lacZ. It is tested if the expression of different combinations of fusion protein in the presence of either 78 or 79 complemented the histidine auxotrophy of the yeast L40 (Table 1). […] No growth is observed in the absence of 78 or 79.\nIn principal, the reconstitution of functional transcription factor through benzyl guanine 78 and 79 is independent of which ligand-binding protein is fused to LexA and which to B42. To verify this assumption the growth of yeast L40 co-expressing LexA-DHFR and B42-^3HYhAGT on plates lacking histidine but containing compounds 78 or 79 is examined."}, "[4]": {"system": "yeast strain L40 expressing LexA and B42 fusion proteins of ^3HYhAGT and DHFR", "assay": "Quantitative β-galactosidase assay using ONPG (lacZ reporter) in yeast L40", "type": "cell-based", "settings": "1 μM, cell extracts of liquid cultures", "procedure": "The activation of transcription of the lacZ reporter gene by the benzyl guanine based compounds 78 and 79 in the yeast strain L40 expressing different combinations of LexA and B42 fusion proteins is examined (Table 2). In this assay, the activity of the product of the lacZ gene, β-galactosidase, is determined by measuring the hydrolysis rate of the chromogenic substrate o-nitrophenyl-β-D-galactopyranoside (ONPG) in cell extracts of liquid cultures."}, "GST-^3HYhAGT": {"molecular_target": "T2, GST-^3HYhAGT (Homo sapiens, UniProt P16455, A127T/K125A/N157G/R128A/S159E)", "T2 construct": "made in house; host or cells: E. coli", "T2 sequence (P16455 1-207 K125A/A127T/R128A/N157G/S159E)": "T1 sequence (P16455 1-207 N157G/S159E/G160A) with K125A, A127T, R128A, A160G", "assay": "In vitro reactivity against GST-^3HYhAGT followed by Western Blotting with anti-methotrexate antibody", "type": "biochemical", "procedure": "GST-^3HYhAGT is incubated with an excess of 78 or 79 and the reaction is followed by Western Blotting using an anti-methotrexate antibody. […] Accordingly, at concentrations of 78 of 1 μM and at an excess of 78 over ^3HYhAGT (pseudo first-order conditions), 50% of the protein is labelled in less than 10 min.\nFor the construction of hAGT fusion proteins, preferably the mutant Asn157Gly Ser159Glu is used. […] The rationale behind the introduction of these mutations is to minimize the interaction of hAGT fusion proteins with DNA in the three-hybrid system. The resulting hAGT mutant carrying the five mutations described above is abbreviated as ^3HYhAGT."}, "hAGT": {"molecular_target": "T3, hAGT (Homo sapiens, UniProt P16455)", "T3 sequence (P16455 1-207)": "T1 sequence (P16455 1-207 N157G/S159E/G160A) with G157N, E159S, A160G", "settings": "reaction with hAGT; cited from earlier work"}, "[5]": {"settings": "co-expression of LexA-DHFR and B42-^3HYhAGT"}, "[6]": {"settings": "co-expression of LexA-^3HYhAGT and B42-DHFR"}},
  "note": "Numbering of substitutions follows the chain as printed.",
  "data": [
    {"smiles": "NCCOCCOCCOCCn1cc(COc2nc(N)nc3[nH]cnc23)nn1", "note": "[compound 11, O^6-(1-[11-Amino-3,6,9-trioxaundecyl]-1,2,3-triazolyl-4-methyl)guanine]", "values": [
      {"measurement": "reaction of ^PGEAhAGT-GST with biotinylated oligonucleotide after first reacting with the compound", "setting": "^PGEAhAGT-GST [1]", "result": "no further reaction with biotinylated oligonucleotide is observed"}
    ]},
    {"smiles": "Nc1nc(OCc2ccc(COCCOCCOCCOCCNC(=O)C(CCCCNC(=O)CCCCCNC(=O)c3ccc(-c4c5ccc(=O)cc-5oc5cc(O)ccc45)c(C(=O)O)c3)NC(=O)CCCCCNC(=O)CCCC[C@H]3SC[C@H]4NC(=O)N[C@H]43)cc2)c2nc[nH]c2n1", "note": "(stereo partly drawn) [compound 60, O^6-Benzylguanine-PEG-amino-α-N-(biotinyl-6-aminocaproyl)-ε-N-(6-[fluorescein-5-carbonyl]-aminocaproyl)-lysine]", "values": [
      {"measurement": "substrate for hAGT (reaction product detected by Western Blotting)", "setting": "^PGEAhAGT-GST [2]", "result": "efficient substrate for hAGT"}
    ]},
    {"smiles": "CN(Cc1cnc2nc(N)nc(N)c2n1)c1ccc(C(=O)N[C@@H](CCC(=O)NCCCCCCCCCCCC(=O)NCc2ccc(COc3nc(N)nc4[nH]cnc34)cc2)C(=O)O)cc1", "note": "[compound 78]", "values": [
      {"measurement": "Growth rate", "setting": "[3]; LexA-DHFR/ B42-^3HYhAGT, 1 μM", "result": "++ (detection of colonies within 3 days)"},
      {"measurement": "Growth rate", "setting": "[3]; LexA-^3HYhAGT/ B42-DHFR, 1 μM", "result": "+++ (detection of colonies within 2 days)"},
      {"measurement": "growth of yeast L40 on plates lacking histidine (in words)", "setting": "[3]; [5]", "result": "growth dependent on compounds 78 or 79 is observed"},
      {"measurement": "growth of yeast L40 on plates lacking histidine (in words)", "setting": "[3]; [6]", "result": "allows yeast L40 to grow on plates lacking histidine"},
      {"measurement": "ONPG hydrolysis", "setting": "[4]; LexA-DHFR/ B42-^3HYhAGT", "result": "28 nM of o-nitrophenol formed per min per mg total protein"},
      {"measurement": "ONPG hydrolysis", "setting": "[4]; LexA-^3HYhAGT/ B42-DHFR", "result": "865 nM of o-nitrophenol formed per min per mg total protein"},
      {"measurement": "time in which 50% of the protein is labelled", "setting": "GST-^3HYhAGT; 1 μM 78, excess over ^3HYhAGT, pseudo first-order conditions", "result": "less than 10 min"},
      {"measurement": "kinact/KI", "setting": "GST-^3HYhAGT; GST-^3HYhAGT incubated with an excess of compound, read-out: second-order rate constant", "result": "~1500", "unit": "M⁻¹ s⁻¹"}
    ]},
    {"smiles": "CN(Cc1cnc2nc(N)nc(N)c2n1)c1ccc(C(=O)NC(CCC(=O)NCCOCCOCCOCCOCc2ccc(COc3nc(N)nc4nc[nH]c34)cc2)C(=O)O)cc1", "note": "(stereo not drawn) [compound 79, O^6-4-[13-N-(4-{4-[N-(2,4-Diamino-6-pteridinylmethyl)-methylamino]-benzoyl-amino}-4-carboxybutanoyl)-amino-2,5,8,11-tetraoxatridecyl]-benzyl guanine]", "values": [
      {"measurement": "Growth rate", "setting": "[3]; LexA-DHFR/ B42-^3HYhAGT, 10 μM", "result": "++ (detection of colonies within 3 days)"},
      {"measurement": "Growth rate", "setting": "[3]; LexA-^3HYhAGT/ B42-DHFR, 10 μM", "result": "+++ (detection of colonies within 2 days)"},
      {"measurement": "growth of yeast L40 on plates lacking histidine (in words)", "setting": "[3]; [5]", "result": "growth dependent on compounds 78 or 79 is observed"},
      {"measurement": "growth of yeast L40 on plates lacking histidine (in words)", "setting": "[3]; [6]", "result": "allows yeast L40 to grow on plates lacking histidine"},
      {"measurement": "ONPG hydrolysis", "setting": "[4]; LexA-DHFR/ B42-^3HYhAGT", "result": "24 nM of o-nitrophenol formed per min per mg total protein"},
      {"measurement": "ONPG hydrolysis", "setting": "[4]; LexA-^3HYhAGT/ B42-DHFR", "result": "63 nM of o-nitrophenol formed per min per mg total protein"},
      {"measurement": "second-order rate constant", "setting": "GST-^3HYhAGT; GST-^3HYhAGT incubated with an excess of compound", "result": "~900", "unit": "sec^−1M^−1"}
    ]},
    {"smiles": "Nc1nc(OCc2ccccc2)c2nc[nH]c2n1", "note": "[O^6-benzylguanine]", "values": [
      {"measurement": "second order rate constant", "setting": "hAGT", "result": "approximately 10^3 sec^−1 M^−1"}
    ]}
  ]
}
